Patent US20240398828A1, “HETERO-ATOM CONTAINING COMPOUNDS AND USES THEREOF” (Kumquat Biosciences Inc., priority 2021, published 2024)

Tests used:
PTPN1 (i.e., PTP1B) = molecular target: T1, PTPN1 (i.e., PTP1B) (Homo sapiens, UniProt P18031); experiment: Phosphatase activity assay (DiFMUP substrate), PTP1B; type: biochemical; settings: compounds binned ≤1 uM or >1 uM
T1 sequence (P18031 1-435): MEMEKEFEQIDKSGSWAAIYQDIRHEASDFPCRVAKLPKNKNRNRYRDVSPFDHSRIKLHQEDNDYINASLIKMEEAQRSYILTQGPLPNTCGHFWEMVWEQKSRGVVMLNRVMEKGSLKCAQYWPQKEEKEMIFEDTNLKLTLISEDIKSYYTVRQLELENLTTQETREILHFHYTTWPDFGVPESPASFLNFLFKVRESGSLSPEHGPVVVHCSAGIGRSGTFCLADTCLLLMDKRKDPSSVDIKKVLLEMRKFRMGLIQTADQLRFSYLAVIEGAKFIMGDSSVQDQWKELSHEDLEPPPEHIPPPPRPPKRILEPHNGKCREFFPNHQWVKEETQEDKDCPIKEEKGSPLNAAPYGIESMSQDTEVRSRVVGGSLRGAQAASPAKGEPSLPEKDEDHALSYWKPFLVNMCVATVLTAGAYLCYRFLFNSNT
Method in brief: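 Read-out is continuous fluorescence of DiFMU (360 nm excitation, 450 nm emission) over about 15-30 minutes, with DiFMUP substrate at the enzyme's independently determined Km (PTPN2 approx. 45 μM final). Buffer: 50 mM HEPES pH 7.5, 150 mM NaCl, 0.5 mM EDTA, 1 mM DTT, 0.001% Tween-20, room temperature; initial rates versus 10-point dilution fitted for IC50, at least duplicate.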

PTPN2 (i.e., TC-PTP) = molecular target: T2, PTPN2 (i.e., TC-PTP) (Homo sapiens, UniProt P17706); experiment: Phosphatase activity assay (DiFMUP substrate), PTPN2; type: biochemical; settings: compounds binned ≤1 uM or >1 uM
T2 sequence (P17706 1-415): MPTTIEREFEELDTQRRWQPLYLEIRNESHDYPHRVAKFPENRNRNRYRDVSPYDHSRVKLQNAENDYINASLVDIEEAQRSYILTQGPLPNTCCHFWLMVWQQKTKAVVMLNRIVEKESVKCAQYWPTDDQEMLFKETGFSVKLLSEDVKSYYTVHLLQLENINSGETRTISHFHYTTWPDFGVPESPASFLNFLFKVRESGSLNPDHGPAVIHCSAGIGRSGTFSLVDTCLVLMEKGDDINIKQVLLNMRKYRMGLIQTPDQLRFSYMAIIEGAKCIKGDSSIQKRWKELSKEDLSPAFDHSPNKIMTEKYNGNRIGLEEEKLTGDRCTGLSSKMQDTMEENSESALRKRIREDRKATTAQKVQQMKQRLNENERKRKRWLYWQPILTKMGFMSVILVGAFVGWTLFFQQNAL
Method in brief: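 Using a Km-level DiFMUP substrate and 0.025 ng/ul PTPN2, phosphatase activity is tracked by DiFMU emission at 450 nm over about 15–30 minutes. Initial rates at ten inhibitor concentrations give IC50 by four-parameter fitting.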

| IC50 (PTPN1 (i.e., PTP1B)) [nM] | IC50 (PTPN2 (i.e., TC-PTP)) [nM] | Compound |
| --- | --- | --- |
| ≤ 1000 | ≤ 1000 | Nc1nc2ccc(-c3ccc(O)c(N4CC(=O)NS4(=O)=O)c3F)cc2o1 [Compound 191, 5-(3-(2-aminobenzo[d]oxazol-6-yl)-2-fluoro-6-hydroxyphenyl)-1,2,5-thiadiazolidin-3-one 1,1-dioxide] |
| ≤ 1000 | ≤ 1000 | O=C1CN(c2c(O)ccc(-c3cc(C4=CCOC4)n[nH]3)c2F)S(=O)(=O)N1 [Compound 362, 5-(3-(3-(2,5-dihydrofuran-3-yl)-1H-pyrazol-5-yl)-2-fluoro-6-hydroxyphenyl)-1,2,5-thiadiazolidin-3-one 1,1-dioxide] |
| ≤ 1000 | ≤ 1000 | CN1CCc2cc(-c3ccc(O)c(N4CC(=O)NS4(=O)=O)c3F)ccc2C1 [Compound 109, 5-(2-fluoro-6-hydroxy-3-(2-methyl-1,2,3,4-tetrahydroisoquinolin-6-yl)phenyl)-1,2,5-thiadiazolidin-3-one 1,1-dioxide] |
| ≤ 1000 | ≤ 1000 | COc1ccc(-n2cnc(-c3ccc(O)c(N4CC(=O)NS4(=O)=O)c3F)c2)cc1 [Compound 348, 5-(2-fluoro-6-hydroxy-3-(1-(4-methoxyphenyl)-1H-imidazol-4-yl)phenyl)-1,2,5-thiadiazolidin-3-one 1,1-dioxide] |
| ≤ 1000 | ≤ 1000 | O=C1CN(c2c(O)ccc(-c3cc(C4CCC4)n[nH]3)c2F)S(=O)(=O)N1 [Compound 281, 5-(3-(3-cyclobutyl-1H-pyrazol-5-yl)-2-fluoro-6-hydroxyphenyl)-1,2,5-thiadiazolidin-3-one 1,1-dioxide] |
| ≤ 1000 | ≤ 1000 | O=C1CN(c2c(O)ccc(-c3cnn(C4CCCCC4)c3)c2F)S(=O)(=O)N1 [Compound 160, 5-(3-(1-cyclohexyl-1H-pyrazol-4-yl)-2-fluoro-6-hydroxyphenyl)-1,2,5-thiadiazolidin-3-one 1,1-dioxide] |
| ≤ 1000 | ≤ 1000 | C[C@H]1C=C(c2ccc(O)c(N3CC(=O)NS3(=O)=O)c2F)CN1 [Compound 504, (S)-5-(2-fluoro-6-hydroxy-3-(5-methyl-2,5-dihydro-1H-pyrrol-3-yl)phenyl)-1,2,5-thiadiazolidin-3-one 1,1-dioxide] |
| ≤ 1000 | ≤ 1000 | O=C1CN(c2c(O)ccc(C3=CCN(CC4CCCCC4)C3)c2F)S(=O)(=O)N1 [Compound 267, 5-(3-(1-(cyclohexylmethyl)-2,5-dihydro-1H-pyrrol-3-yl)-2-fluoro-6-hydroxyphenyl)-1,2,5-thiadiazolidin-3-one 1,1-dioxide] |
| ≤ 1000 | ≤ 1000 | O=C1CN(c2c(O)ccc(-c3cnn(Cc4cccnc4)c3)c2F)S(=O)(=O)N1 [Compound 187, 5-(2-fluoro-6-hydroxy-3-(1-(pyridin-3-ylmethyl)-1H-pyrazol-4-yl)phenyl)-1,2,5-thiadiazolidin-3-one 1,1-dioxide] |
| ≤ 1000 | ≤ 1000 | O=C1CN(c2c(O)ccc(-c3cnn(C4CC4(F)F)c3)c2F)S(=O)(=O)N1 (stereo not shown) [Compound 424, 5-(3-(1-(2,2-difluorocyclopropyl)-1H-pyrazol-4-yl)-2-fluoro-6-hydroxyphenyl)-1,2,5-thiadiazolidin-3-one 1,1-dioxide] |
| ≤ 1000 | ≤ 1000 | Cc1ncc(-c2ccc(O)c(N3CC(=O)NS3(=O)=O)c2F)o1 [Compound 101, 5-(2-fluoro-6-hydroxy-3-(2-methyloxazol-5-yl)phenyl)-1,2,5-thiadiazolidin-3-one 1,1-dioxide] |
| ≤ 1000 | ≤ 1000 | CC1C=C(c2ccc(O)c(N3CC(=O)NS3(=O)=O)c2F)CN1 (stereo not shown) [Compound 282, 5-(2-fluoro-6-hydroxy-3-(5-methyl-2,5-dihydro-1H-pyrrol-3-yl)phenyl)-1,2,5-thiadiazolidin-3-one 1,1-dioxide] |
| ≤ 1000 | ≤ 1000 | O=C1CN(c2c(O)ccc(-c3cnn(Cc4ccc(C(F)(F)F)cc4)c3)c2F)S(=O)(=O)N1 [Compound 217, 5-(2-fluoro-6-hydroxy-3-(1-(4-(trifluoromethyl)benzyl)-1H-pyrazol-4-yl)phenyl)-1,2,5-thiadiazolidin-3-one 1,1-dioxide] |
| ≤ 1000 | ≤ 1000 | Cn1cc(-c2ccc(O)c(N3CC(=O)NS3(=O)=O)c2F)nc1O [Compound 527, 5-(2-fluoro-6-hydroxy-3-(2-hydroxy-1-methyl-1H-imidazol-4-yl)phenyl)-1,2,5-thiadiazolidin-3-one 1,1-dioxide] |
| ≤ 1000 | ≤ 1000 | CCC1C=C(c2ccc(O)c(N3CC(=O)NS3(=O)=O)c2F)CNC1 (stereo not shown) [Compound 497, 5-(3-(5-ethyl-1,2,5,6-tetrahydropyridin-3-yl)-2-fluoro-6-hydroxyphenyl)-1,2,5-thiadiazolidin-3-one 1,1-dioxide] |
| ≤ 1000 | ≤ 1000 | O=C1CN(c2c(O)ccc(C3CCN(C4CC4)CC3)c2F)S(=O)(=O)N1 [Compound 353, 5-(3-(1-cyclopropylpiperidin-4-yl)-2-fluoro-6-hydroxyphenyl)-1,2,5-thiadiazolidin-3-one 1,1-dioxide] |
| ≤ 1000 | ≤ 1000 | CCC1(c2cc(-c3ccc(O)c(N4CC(=O)NS4(=O)=O)c3F)[nH]n2)CC1 [Compound 369, 5-(3-(3-(1-ethylcyclopropyl)-1H-pyrazol-5-yl)-2-fluoro-6-hydroxyphenyl)-1,2,5-thiadiazolidin-3-one 1,1-dioxide] |
| ≤ 1000 | ≤ 1000 | CC(C)CNc1ccc(-c2ccc(O)c(N3CC(=O)NS3(=O)=O)c2F)cc1 [Compound 193, 5-(2-fluoro-4-hydroxy-4′-(isobutylamino)-[1,1′-biphenyl]-3-yl)-1,2,5-thiadiazolidin-3-one 1,1-dioxide] |
| ≤ 1000 | ≤ 1000 | CC(C)CNCc1cc(-c2ccc(O)c(N3CC(=O)NS3(=O)=O)c2F)nn1C [Compound 288, 5-(2-fluoro-6-hydroxy-3-(5-((isobutylamino)methyl)-1-methyl-1H-pyrazol-3-yl)phenyl)-1,2,5-thiadiazolidin-3-one 1,1-dioxide] |
| ≤ 1000 | ≤ 1000 | Cc1nsc(-c2ccc(O)c(N3CC(=O)NS3(=O)=O)c2F)n1 [Compound 425, 5-(2-fluoro-6-hydroxy-3-(3-methyl-1,2,4-thiadiazol-5-yl)phenyl)-1,2,5-thiadiazolidin-3-one 1,1-dioxide] |
| ≤ 1000 | ≤ 1000 | O=C1CN(c2c(O)ccc(-c3cn(CC(F)F)nc3F)c2F)S(=O)(=O)N1 [Compound 488, 5-(3-(1-(2,2-difluoroethyl)-3-fluoro-1H-pyrazol-4-yl)-2-fluoro-6-hydroxyphenyl)-1,2,5-thiadiazolidin-3-one 1,1-dioxide] |
| ≤ 1000 | ≤ 1000 | COc1cc(-c2ccc(O)c(N3CC(=O)NS3(=O)=O)c2F)c(F)cn1 [Compound 206, 5-(2-fluoro-3-(5-fluoro-2-methoxypyridin-4-yl)-6-hydroxyphenyl)-1,2,5-thiadiazolidin-3-one 1,1-dioxide] |
| ≤ 1000 | ≤ 1000 | O=C1CN(c2c(O)ccc(-c3cn(-c4ccccc4F)cn3)c2F)S(=O)(=O)N1 [Compound 437, 5-(2-fluoro-3-(1-(2-fluorophenyl)-1H-imidazol-4-yl)-6-hydroxyphenyl)-1,2,5-thiadiazolidin-3-one 1,1-dioxide] |
